The nature of data set [1]: Ophthalmic histopathological examination after long-term administration (Test Example 4). To be noted: female NOG mice (n=8), 100 or 200 mg/kg. Format: in vivo, mouse. From the text:
Preparation of dosing Solution:
4. Administration Method:
Four continuous doses, 1 drug holiday, 5 continuous doses, 2 drug holidays, 5 continuous doses, 2 drug holidays, 5 continuous doses, 2 drug holidays, and 4 continuous doses.
5. Pathological Examination
On the day following the termination date of the administration period, the mice were euthanized by blood letting under isoflurane anesthesia. Then, their eyeballs were collected, fixed in Davidson's solutions, then embedded in paraffin, and stained with hematoxylin eosin to prepare preparations, which were then histopathologically examined.

In data set [2] the target is T1, human MER (intracellular domain, amino acids 528-999, GST fusion) (Homo sapiens (Human), UniProt Q12866). Description: biochemical.
Data set [3] concerns the target T1, human MER (intracellular domain, amino acids 528-999, GST fusion). To be noted: read-out: Mer kinase IC50; cell-free, ATP concentration of 1 mM.
The subject of a further data set is NIH-3T3-Axl #7. Description: Antitumor test, NIH-3T3-Axl #7 tumors in NOG mice (Test Example 5). It is filed as in vivo, mouse. To be noted: NIH-3T3-Axl #7 in female NOG mice, 5 continuous doses. An excerpt: (Test Example 5: Antitumor Test)
NIH-3T3-Axl #7 (cells prepared by the transfection of NIH3T3 cells with pLXSN retrovirus having an insert of full-length Axl cDNA) was block-transplanted into female NOG mice.

The subject of data set [4] is HCC827 lung cancer cells. Nature of the data set: In vivo effect of combined use with erlotinib, HCC827 subcutaneous tumors (Test Example 6). The conditions noted are these: HCC827 in nude mice, 50 mg/kg bid in combination with 25 mg/kg erlotinib qd.
The test system of data set [5] is HCC827 lung cancer cells. Description: In vivo effect of combined use with erlotinib-2, erlotinib-resistant HCC827 tumors (Test Example 8). More on the design: species or system mouse.

Structures can show the parent of a compound that is named as a salt. Where two headings read alike, the source gives them in different places.

T1 sequence (Q12866 528-999): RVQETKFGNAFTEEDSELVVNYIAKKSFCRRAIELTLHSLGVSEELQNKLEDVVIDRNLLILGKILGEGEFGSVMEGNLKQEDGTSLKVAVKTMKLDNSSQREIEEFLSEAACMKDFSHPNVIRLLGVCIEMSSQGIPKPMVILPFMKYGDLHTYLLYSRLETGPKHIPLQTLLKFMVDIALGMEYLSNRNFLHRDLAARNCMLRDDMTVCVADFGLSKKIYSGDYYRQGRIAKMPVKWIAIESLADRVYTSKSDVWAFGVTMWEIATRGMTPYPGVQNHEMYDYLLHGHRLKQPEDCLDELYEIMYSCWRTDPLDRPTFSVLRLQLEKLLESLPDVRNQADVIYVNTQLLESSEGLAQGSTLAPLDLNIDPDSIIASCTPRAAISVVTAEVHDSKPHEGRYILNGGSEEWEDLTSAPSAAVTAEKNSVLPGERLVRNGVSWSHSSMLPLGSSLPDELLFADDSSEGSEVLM

As to `COc1cc(-c2cnc(N)c(-c3ccc(NC(=O)c4cn(CC5(C#N)CCOCC5)cc(-c5ccc(F)cc5)c4=O)cc3)c2)ccc1OC[C@H]1COCCO1.CS(=O)(=O)O` [Example 129], the “histological change in the retina” value in data set [1] is “No histological change in the retinal”.
What is called IC50 is the concentration that gives 50% inhibition. In turn, `COc1ccc(-c2cnc(N)c(-c3ccc(NC(=O)c4cn(CC5CCOCC5)cc(-c5ccc(C)cc5)c4=O)cc3)c2)cc1OC` [Example 2] displayed an IC50 in data set [2] of 0.102 µM.
Turning to `COc1cc(-c2cnc(N)c(-c3ccc(NC(=O)c4cn(CC5CCOCC5)cc(-c5ccc(C)s5)c4=O)nn3)c2)ccc1OC[C@H]1COCCO1` [Example 106], the half-maximal inhibitory concentration (IC50) in data set [3] is more than 4 µM.
Still for that read-out and setting: then `Cc1ccc(-c2cn(CC3CCOCC3)cc(C(=O)Nc3ccc(-c4cc(-c5cnn(C6CCOCC6)c5)cnc4N)nn3)c2=O)cc1` [Example 109], with more than 4 µM.
On to `COc1cc(-c2cnc(N)c(-c3ccc(NC(=O)c4cn(CC5CCOCC5)cc(-c5ccc(C)cc5)c4=O)cc3)c2)ccc1OC[C@H]1COCCO1.CS(=O)(=O)O` [Example 128], for which the “histological change in the retina” value in data set [1] is given as “No histological change in the retinal”. Further, the antitumor effect entry in the data set with NIH-3T3-Axl #7 (3.1 mg/kg oral bid) is “almost completely inhibited tumor growth”; in the data set on NIH-3T3-Axl #7 (12.5 mg/kg oral bid) it was “distinct tumor regression effect”; in the data set on NIH-3T3-Axl #7 (50 mg/kg oral bid), “distinct tumor regression effect”.
Consider `Cc1ccc(-c2cn(CC3CCOCC3)cc(C(=O)Nc3ccc(-c4cc(-c5cc(C)nc(C)c5)cnc4N)nc3)c2=O)cc1` [Example 89], for which the IC50 in data set [3] was more than 4 µM.
Take `Cc1ccc(-c2cn(CC3CCOCC3)cc(C(=O)Nc3ccc(-c4cc(-c5cnn(CC6CCOCC6)c5)cnc4N)nn3)c2=O)cc1` [Example 102]: the IC50 in data set [3] is more than 4 µM.
For the compound `COc1cc(-c2cnc(N)c(-c3ccc(NC(=O)c4cn(CC5CCOCC5)cc(-c5ccc(C)cn5)c4=O)cc3F)c2)ccc1OC[C@H]1COCCO1` [Compound B sulfate hydrate], the body weight change entry in the data set on HCC827 lung cancer cells [4] is “No significant weight loss”. For the same compound, the “tumor size relative to start of administration (estimated tumor volume)” value in the data set on HCC827 lung cancer cells [4] is recorded as “did not reach that at the start of administration even at Day 107”. Also, the “growth inhibition of erlotinib-resistant tumor” value in the data set with HCC827 lung cancer cells [5] (group 2: 50 mg/kg bid + 25 mg/kg erlotinib qd) and with HCC827 lung cancer cells [5] (group 3: 25 mg/kg bid + 25 mg/kg erlotinib qd) was “distinct growth inhibitory effect of erlotinib was confirmed” each time. In the data set with HCC827 lung cancer cells [5] (group 2: 50 mg/kg bid + 25 mg/kg erlotinib qd, 116 to 140 days after transplantation), the “estimated tumor volume of erlotinib-resistant tumor” value is on record as “maintained even at 140 days after transplantation”.
Turning to `COc1ccc(-c2cnc(N)c(-c3ccc(NC(=O)c4cn(CC5CCOCC5)cc(-c5ccc(OC(F)(F)F)cc5)c4=O)cc3)c2)cc1OC` [Example 7], the IC50 in data set [3] is more than 4 µM.
Turning to `COc1ccc(-c2cnc(N)c(-c3cnc(NC(=O)c4cn(CC5CCOCC5)cc(-c5ccc(C)cc5)c4=O)cn3)c2)cc1OC` [Example 112, N-{5-[2-Amino-5-(3,4-dimethoxyphenyl)pyridin-3-yl]pyrazin-2-yl}-5-(4-methylphenyl)-4-oxo-1-(tetrahydro-2H-pyran-4-ylmethyl)-1,4-dihydropyridine-3-carboxamide], the IC50 in data set [2] was more than 4 µM.
Regarding `COc1cc(-c2cnc(N)c(-c3ccc(NC(=O)c4cn(CC5CCOCC5)cc(-c5ccc(C)cc5)c4=O)nn3)c2)ccc1OCCN1CCOCC1` [Example 110, N-[6-(2-Amino-5-{3-methoxy-4-[2-(morpholin-4-yl)ethoxy]phenyl}pyridin-3-yl)pyridazin-3-yl]-5-(4-methylphenyl)-4-oxo-1-(tetrahydro-2H-pyran-4-ylmethyl)-1,4-dihydropyridine-3-carboxamide], the half-maximal inhibitory concentration (IC50) in data set [3] is more than 4 µM.
Regarding `COc1cc(-c2cnc(N)c(-c3ccc(NC(=O)c4cn(CC5CCOCC5)cc(-c5ccc(C)cn5)c4=O)cc3F)c2)ccc1OC[C@H]1COCCO1` [Example 124], in data set [1], the “histological change in the retina” value is “No histological change in the retinal”.
Turning to `COc1cc(-c2cnc(N)c(-c3ccc(NC(=O)c4cn(CC5CCOCC5)cc(-c5ccc(C)cn5)c4=O)nn3)c2)ccc1OC[C@H]1COCCO1` [Example 105], the IC50 in data set [3] is more than 4 µM.
For the compound `COc1cc(-c2cnc(N)c(-c3ccc(NC(=O)c4cn(CC5CCOCC5)cc(-c5ccc(C)cc5)c4=O)cn3)c2)c(OC)nn1` [Example 96], the IC50 in data set [3] is more than 4 µM.
Regarding `COc1ccc(-c2cnc(N)c(-c3ccc(NC(=O)c4cn(CC(F)(F)F)cc(-c5ccc(F)cc5)c4=O)cc3)c2)cc1OC` [Compound A, reference compound], the antitumor effect result in the data set with NIH-3T3-Axl #7 (4.2 mg/kg oral bid) and with NIH-3T3-Axl #7 (25 mg/kg oral bid) was “distinct tumor regression effect” in each case.
Consider `Cc1ccc(-c2cn(CC3CCOCC3)cc(C(=O)Nc3ccc(-c4cc(-c5cnn(C[C@H]6COCCO6)c5)cnc4N)nn3)c2=O)cc1` [Example 108], for which, in data set [3], the IC50 was more than 4 µM.
On the same count and under the same terms, with `COc1ccc(-c2cnc(N)c(-c3ccc(NC(=O)c4cn(CC5CCOCC5)cc(-c5ccc(C)cn5)c4=O)nn3)c2)cc1OC` [Example 103] the figure was more than 4 µM.

Values taken from patent publication US11208403B2, “Pyridone derivatives having tetrahydropyranylmethyl groups” (DAIICHI SANKYO COMPANY, LIMITED, priority 2014, dated 2021).
